Patent US5164381A, “Pharmacologically active 1,5-diaryl-3-substituted pyrazoles and method for synthesizing the same” (Ortho Pharmaceutical Corporation, priority 1991, dated 1992)

What follows are molecules tested on Lewis strain laboratory rats (assay: In vivo alleviation of inflammation: polyarthritis (adjuvant, Mycobacterium butyricum) in rats, inhibition of paw volume increase). Settings: Rattus norvegicus, po, rat; read-out: ED50 (effective dose to obtain a 50% inhibition of inflammation).
Procedure: Polyarthritis was induced in Lewis strain laboratory rats (weight=about 200 grams) by injection of a suspension of Mycobacterium butyricum in mineral oil into the subplantar tissue of the mammal's hind paws. On day 10 after the injection, the rats were assigned to groups, and paw volumes and body weights were recorded. Paw volumes of the contralateral, uninjected hind paw were determined by mercury plethylsmography. Per oral (p.o.) dosing began and continued for five consecutive days thereafter. On day 14 after the initial injection, approximately four hours after the final dose was administered, paw volumes and body weights were recorded and quantitated.
Anti-inflammatory activity of the substituted pyrazole compounds is expressed as the percent inhibition of paw volume increase.

| SMILES | ED50 [mg/kg] |
| --- | --- |
| COc1ccc(-n2nc(CCCO)cc2-c2ccc(Cl)cc2)cc1 [Compound 2, 5-(4-Chlorophenyl)-3-(3-hydroxypropyl)-1-(4-methoxyphenyl) pyrazole] | 3.6 |
| COc1ccc(-c2cc(CCC(=O)N(C)O)nn2-c2ccc(Cl)cc2)cc1 [Compound 112] | 16.3 |
| COc1ccc(-n2nc(CCC(=O)N(C)OC(=O)CN(C)C)cc2-c2ccc(Cl)cc2)cc1 [Compound 134, 3-[5-(4-Chlorophenyl)-1-(4-methoxyphenyl)-3-pyrazolyl]-N',N'-dimethylglycinyloxy-N-methylpropanamide] | 12.5 |
| COc1ccc(-n2nc(CCCN(O)C(=O)C(=O)NO)cc2-c2ccc(Cl)cc2)cc1 [Compound 158, N-[3-[5-(4-Chlorophenyl)-1-(4-methoxyphenyl)-3-pyrazolyl]propyl]-N,N'-dihydroxyoxamide] | 33.4 |

Same assay, conditions: po, 336 h; 9 mpk p.o., rat; read-out: % INH. p.o. (percentage inhibition of pad swelling)

| SMILES | inhibition in vivo at 9 mg/kg [%] |
| --- | --- |
| COc1ccc(-n2nc(CCCN(O)S(C)(=O)=O)cc2-c2ccc(Cl)cc2)cc1 [Compound 156] | 34 |

Same assay, conditions: po, 336 h; 10 mpk p.o., rat; read-out: % INH. p.o. (percentage inhibition of pad swelling)

| SMILES | inhibition in vivo at 10 mg/kg [%] |
| --- | --- |
| COc1ccc(-n2nc(CCC(=O)O)cc2-c2ccc(C)c(C)c2)cc1 [Compound 107] | 30 |
| COc1ccc(-n2nc(CCC(=O)N(C)O)cc2-c2cccc(C)c2)cc1 [Compound 115] | 35 |
| COc1ccc(-n2nc(CCC(=O)O)cc2-c2ccc(C)cc2)cc1 [Compound 105] | 87 |
| COc1ccc(-c2cc(CCC(=O)N(C)O)nn2-c2ccc(OC)cc2)cc1 [Compound 113] | 34 |
| COc1ccc(-n2nc(CCCN(O)C(=O)c3ccccc3)cc2-c2ccc(Cl)cc2)cc1 [Compound 155] | 45 |
| CCC(CCc1cc(-c2ccc(Cl)cc2)n(-c2ccc(OC)cc2)n1)=NNc1nccs1 [Compound 175] | 16 |
| COc1ccc(-n2nc(CCCN(O)C(C)=O)cc2-c2ccc(Cl)cc2)cc1 [Compound 152, N-[3-[5-(4-Chlorophenyl)-1-(4-methoxyphenyl)-3-pyrazolyl]propyl]-N-hydroxy-acetamide] | 40 |
| COc1ccc(-n2nc(CCC(=O)O)cc2-c2ccccc2C)cc1 [Compound 109] | 1 |
| COc1ccc(-n2nc(CCC(=O)N(C)OC(=O)C(C)(C)C)cc2-c2ccc(Cl)cc2)cc1 [Compound 141] | 17 |
| COc1ccc(-n2nc(CCC(O)C(C)(C)C)cc2-c2ccc(Cl)cc2)cc1 (centres unmarked) [Compound 179] | 36 |
| COCC(=O)ON(C)C(=O)CCc1cc(-c2ccc(Cl)cc2)n(-c2ccc(OC)cc2)n1 [Compound 142] | 67 |
| CCN(CC)C(=O)CCC(=O)ON(C)C(=O)CCc1cc(-c2ccc(Cl)cc2)n(-c2ccc(OC)cc2)n1 [Compound 137] | 54 |
| CCc1ccc(-c2cc(CCC(=O)N(C)O)nn2-c2ccc(OC)cc2)cc1 [Compound 119] | 24 |
| CCc1ccc(-c2cc(CCC(=O)O)nn2-c2ccc(OC)cc2)cc1 [Compound 110] | 51 |
| COc1ccccc1-n1nc(CCC(=O)O)cc1-c1ccc(Cl)cc1 [Compound 103] | 55 |
| CCCCCCCC(=O)N(O)CCCc1cc(-c2ccc(Cl)cc2)n(-c2ccc(OC)cc2)n1 [Compound 154] | 11 |
| CCCCCCCCNC(=O)CCc1cc(-c2ccc(Cl)cc2)n(-c2ccc(OC)cc2)n1 [Compound 186] | 37 |

Same assay, conditions: po, 336 h; 15 mpk p.o., rat; read-out: % INH. p.o. (percentage inhibition of pad swelling)

| SMILES | inhibition in vivo at 15 mg/kg [%] |
| --- | --- |
| COc1ccc(-n2nc(CCCNC(=O)C(=O)NO)cc2-c2ccc(Cl)cc2)cc1 [Compound 164] | 13 |
| CCOC(=O)CNC(=O)CCc1cc(-c2ccc(Cl)cc2)n(-c2ccc(OC)cc2)n1 [Compound 87] | 22 |
| COc1ccc(-n2nc(CCC(O)c3ccccc3)cc2-c2ccc(Cl)cc2)cc1 (centres unmarked) [Compound 178] | 8 |
| COc1ccc(-n2nc(CCC(=O)N(C)O)cc2-c2ccc(C)cc2)cc1 [Compound 111] | 75 |
| COc1ccc(-n2nc(CCCOCC(=O)O)cc2-c2ccc(Cl)cc2)cc1 [Compound 93] | 17 |
| COc1ccc(-n2nc(CCC(=N)N(C)O)cc2-c2ccc(Cl)cc2)cc1 [Compound 185, N-Hydroxy-N-methyl-2-[5-(4-chlorophenyl)-1-(4-methoxyphenyl)-3-pyrazolyl]ethylcarboximidamide Monohydrate] | 5 |
| COc1ccc(-n2nc(CCC(=O)N(O)C3CCCCC3)cc2-c2ccc(Cl)cc2)cc1 [Compound 82, 3-[5-(4-chlorophenyl)-1-(4-methoxyphenyl)-3-pyrazolyl]-N-cyclohexyl-N-hydroxypropanamide] | 54 |
| COc1ccccc1-n1nc(CCC(=O)N(C)O)cc1-c1ccc(Cl)cc1 [Compound 104] | 39 |
| COc1ccc(-n2nc(CCC(C)=NNc3nccs3)cc2-c2ccc(Cl)cc2)cc1 [Compound 173, 5-(4-Chlorophenyl)-1-(4-methoxyphenyl)-3-(3-oxobutyl)pyrazole thiazol-2-yl hydrazone] | 39 |
| COc1ccc(-n2nc(CCC(=O)O)c(Cl)c2-c2ccc(Cl)cc2)cc1 [Compound 182] | 71 |
| CCOC(=O)C(CSC)NC(=O)CCc1cc(-c2ccc(Cl)cc2)n(-c2ccc(OC)cc2)n1 (centres unmarked) [Compound 101] | 57 |
| COc1ccc(-n2nc(CCC(=O)NO)c(Br)c2-c2ccc(Cl)cc2)cc1 [Compound 150] | 70 |
| COc1ccc(-n2nc(CCC(=O)NCC(=O)NO)cc2-c2ccc(Cl)cc2)cc1 [Compound 88] | 36 |
| CCOC(=O)C(CS)NC(=O)CCc1cc(-c2ccc(Cl)cc2)n(-c2ccc(OC)cc2)n1 (centres unmarked) [Compound 100] | 58 |

Same assay, conditions: po, 336 h; 25 mpk p.o., rat; read-out: % INH. p.o. (percentage inhibition of pad swelling)

| SMILES | inhibition in vivo at 25 mg/kg [%] |
| --- | --- |
| O=C(O)CCc1cc(-c2ccc(Cl)cc2)n(-c2ccccc2)n1 [Compound 17, 3-[5-(4-Chlorophenyl)-1-phenyl-3-pyrazolyl]propionic acid] | 50 |
| COC(=O)c1ccc(/C=C/CCc2cc(-c3ccc(Cl)cc3)n(-c3ccc(OC)cc3)n2)cc1 [Compound 25, 3-[4-(4-Carbomethoxyphenyl)-3(E)-butenyl]-5-(4-chlorophenyl)-1-(4-methoxyphenyl) pyrazole] | 18 |
| COc1ccc(-n2nc(CCC(=O)N(C)O)cc2-c2ccc(F)cc2)cc1 [Compound 45, 3-[5-(4-Fluorophenyl)-1-(4-methoxyphenyl)-3-pyrazolyl]-N-hydroxy-N-methyl propanamide] | 51 |
| CSc1ccc(-n2nc(CCCO)cc2-c2ccc(Cl)cc2)cc1 [Compound 47] | 48 |
| COc1ccc(-n2nc(CC/C=C\CCCC(=O)O)cc2-c2ccc(Cl)cc2)cc1 [Compound 32, Sodium 8-[5-(4-Chlorophenyl)-1-(4-methoxyphenyl)-3-pyrazolyl]-5(Z)-octenoate] | 69 |
| COc1ccc(-n2nc(CCCO)cc2-c2ccc(F)cc2)cc1 [Compound 30] | 42 |
| COCCCc1cc(-c2ccc(Cl)cc2)n(-c2ccc(OC)cc2)n1 [Compound 24, 3-[5-(4-Chlorophenyl)-1-(4-methoxyphenyl)-3-pyrazolyl] propyl methyl ether] | 64 |
| COc1ccc(-n2nc(CCCNO)cc2-c2ccc(Cl)cc2)cc1 [Compound 151, N-[3-[5-(4-Chlorophenyl)-1-(4-methoxyphenyl)-3-pyrazolyl]propyl]hydroxyl-amine] | 42 |

Same assay, conditions: po, 336 h; 30 mpk p.o., rat; read-out: % INH. p.o. (percentage inhibition of pad swelling)

| SMILES | inhibition in vivo at 30 mg/kg [%] |
| --- | --- |
| CCCCCOc1ccc(-n2nc(CCCO)cc2-c2ccc(Cl)cc2)cc1 [Compound 51] | 6.4 |
| CCN(CC)OC(=O)CCc1cc(-c2ccc(Cl)cc2)n(-c2ccc(OC)cc2)n1 [Compound 102] | 87 |

Same assay, conditions: po, 336 h; 40 mpk p.o., rat; read-out: % INH. p.o. (percentage inhibition of pad swelling)

| SMILES | inhibition in vivo at 40 mg/kg [%] |
| --- | --- |
| COc1ccc(-n2nc(CC/C=C\CCCC(N)=O)cc2-c2ccc(Cl)cc2)cc1 [Compound 38] | 40 |
| O=[N+]([O-])c1ccc(-n2nc(CCCO)cc2-c2ccc(Cl)cc2)cc1 [Compound 48] | 40 |
| CN(O)C(=O)CCc1cc(-c2ccc(Cl)cc2)n(-c2ccccc2)n1 [Compound 67, 3-[5-(4-Chlorophenyl)-1-phenyl-3-pyrazolyl]-N-hydroxy-N-methyl propanamide] | 30 |
| COC(=O)CCc1cc(-c2ccc(Cl)cc2)n(-c2ccc(OC)cc2)n1 [Compound 19, Methyl 3-[5-(4-chlorophenyl)-1-(4-methoxyphenyl)-3-pyrazolyl] propionate] | 69 |
| CNOC(=O)CCc1cc(-c2ccc(Cl)cc2)n(-c2ccc(OC)cc2)n1 [Compound 53, 0-[2-[5-(4-Chlorophenyl)-1-(4-methoxyphenyl)-3-pyrazolyl]ethyl-carbonyl]-N-methylhydroxylamine] | 94 |
| COc1ccc(-n2nc(CCC(=O)NC3=NCCS3)cc2-c2ccc(Cl)cc2)cc1 [Compound 85] | 40 |

Same assay, conditions: po, 336 h; 50 mpk p.o., rat; read-out: % INH. p.o. (percentage inhibition of pad swelling)

| SMILES | inhibition in vivo at 50 mg/kg [%] |
| --- | --- |
| OCCCc1cc(-c2ccc(Cl)cc2)n(-c2ccc(F)cc2)n1 [Compound 62] | 31 |
| OCCCc1cc(-c2ccc(Cl)cc2)n(-c2ccccc2)n1 [Compound 1] | 62 |
| OCCCc1cc(-c2ccc(Cl)cc2)n(-c2ccc(Cl)c(Cl)c2)n1 [Compound 8] | 41 |
| COc1ccc(-n2nc(CCCO)cc2-c2ccccc2)cc1 [Compound 10] | 30 |
